Assay results from article PMC5062470, “The mGluR2 positive allosteric modulator, SAR218645, improves memory and attention deficits in translational models of cognitive symptoms associated with schizophrenia” (Scientific Reports, 2016).

How the values were obtained:
CD-1 mice [1] = assay: LY404039-induced turning behavior; format: in vivo; conditions: LY341495 0.3 mg/kg ip; P < 0.001
Experimental: Under light restraint, a single unilateral intracortical infusion of the selective mGluR2/3 receptor agonist, LY404039, was performed in CD-1 mice (25–30 g at arrival). An injection point was assessed using the eyes and back of the skull as landmarks. Immediately following the application of LY404039, the observation period began. The number of contralateral turns elicited in a 5 min period was recorded. SAR218645 was administered orally 60 min before infusion of LY404039 and the potentiation of the turning behavior was noted. The selective mGluR2/3 receptor antagonist, LY341495, was administered ip 90 min prior to infusion of LY404039. Statistical analysis was performed using Kruskal Wallis test followed by a Wilcoxon two-tailed comparison. Ten animals per group were used.

native mouse mGluR2 = biological target: T1, native mouse mGluR2 (Mus musculus, UniProt Q14BI2); assay: [35S]GTPγS binding to mouse cortex; format: biochemical; conditions: glutamate EC20 (1 μM) + SAR218645
T1 construct: SAR218645 acted as a pure mGluR2 PAM at native mouse mGluR2 in the cortex; from tissue; host or cells: mouse cortex membranes
T1 sequence (Q14BI2 19-872): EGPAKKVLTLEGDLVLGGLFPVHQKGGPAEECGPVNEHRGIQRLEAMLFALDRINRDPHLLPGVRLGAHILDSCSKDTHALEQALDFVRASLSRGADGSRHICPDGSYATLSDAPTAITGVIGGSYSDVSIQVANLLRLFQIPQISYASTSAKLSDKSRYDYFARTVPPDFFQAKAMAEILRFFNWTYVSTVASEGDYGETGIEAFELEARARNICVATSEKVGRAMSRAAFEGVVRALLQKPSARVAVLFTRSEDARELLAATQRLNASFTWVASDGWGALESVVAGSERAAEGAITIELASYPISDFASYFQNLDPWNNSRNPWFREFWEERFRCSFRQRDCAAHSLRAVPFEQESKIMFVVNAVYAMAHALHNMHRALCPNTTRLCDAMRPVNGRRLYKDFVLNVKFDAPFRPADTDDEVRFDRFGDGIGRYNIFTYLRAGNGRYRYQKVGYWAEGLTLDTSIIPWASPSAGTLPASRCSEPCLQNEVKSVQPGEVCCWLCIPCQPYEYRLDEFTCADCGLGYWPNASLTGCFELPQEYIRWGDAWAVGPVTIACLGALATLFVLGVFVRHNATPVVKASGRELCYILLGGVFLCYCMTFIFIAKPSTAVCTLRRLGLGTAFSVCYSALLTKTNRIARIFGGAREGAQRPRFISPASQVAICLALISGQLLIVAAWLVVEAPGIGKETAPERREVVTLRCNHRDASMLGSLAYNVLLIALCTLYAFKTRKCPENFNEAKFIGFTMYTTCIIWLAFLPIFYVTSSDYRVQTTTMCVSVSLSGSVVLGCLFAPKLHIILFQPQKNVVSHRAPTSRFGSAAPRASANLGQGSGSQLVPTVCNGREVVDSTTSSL
Experimental: The assay was performed in 96-well filtration plates in 250 μl total volume. […] For termination of the reaction, the plate was filtered and dried prior to adding 50 μl Microscint 40, and counted on the 1450 TopCount Microbeta Counter. EC50 were calculated using 4-parameter curve fitting.

OF1 mice = assay: Maximal electroshock seizure (MES) test; format: in vivo; conditions: 10 mg/kg ip; vehicle 100
Experimental: SAR218645 (30 mg/kg, po) and the reference anticonvulsant agent, diazepam (10 mg/kg), were administered ip to OF1 mice (12–14 g) 30 min prior to test, respectively. An electrical stimulus (60 Hz, 0.8 ms rectangular pulse, 0.4 s duration, 50 mA) was applied to both corneas. The occurrence of tonic extension of the hindlimbs was noted.

CD-1 mice [2] = assay: DOI-induced head-twitch behaviors; format: in vivo; conditions: po; DOI 1 mg/kg ip
Experimental: Male CD-1 mice weighing 25–30 g at the time of testing were used. Animals were brought into the testing area and allowed at least 30 min to acclimatize. The behavior observation was conducted in a wire test chamber measuring 10 cm^3. SAR218645 or the selective 5-HT2A receptor antagonist, volinanserin, was administered po at various times before administration of DOI. DOI was injected ip at a dose of 1 mg/kg. Five minutes later behavioral observation commenced. A trained (blinded) observer continuously watched the mice for 20 min and noted the number of DOI-induced head twitches during this time. The number of head twitches per group was averaged and SAR218645 or volinanserin plus DOI were compared to DOI alone. Three to eight animals per group were used.

rat mGluR2 = rat mGluR2 (Rattus norvegicus, UniProt P31421); assay: [3H]LY341495 binding to membranes; parameters: expressed in transfected cells; host or cells: inducible HEK-293 cell line (membranes)
Chain of rat mGluR2 (P31421 19-872): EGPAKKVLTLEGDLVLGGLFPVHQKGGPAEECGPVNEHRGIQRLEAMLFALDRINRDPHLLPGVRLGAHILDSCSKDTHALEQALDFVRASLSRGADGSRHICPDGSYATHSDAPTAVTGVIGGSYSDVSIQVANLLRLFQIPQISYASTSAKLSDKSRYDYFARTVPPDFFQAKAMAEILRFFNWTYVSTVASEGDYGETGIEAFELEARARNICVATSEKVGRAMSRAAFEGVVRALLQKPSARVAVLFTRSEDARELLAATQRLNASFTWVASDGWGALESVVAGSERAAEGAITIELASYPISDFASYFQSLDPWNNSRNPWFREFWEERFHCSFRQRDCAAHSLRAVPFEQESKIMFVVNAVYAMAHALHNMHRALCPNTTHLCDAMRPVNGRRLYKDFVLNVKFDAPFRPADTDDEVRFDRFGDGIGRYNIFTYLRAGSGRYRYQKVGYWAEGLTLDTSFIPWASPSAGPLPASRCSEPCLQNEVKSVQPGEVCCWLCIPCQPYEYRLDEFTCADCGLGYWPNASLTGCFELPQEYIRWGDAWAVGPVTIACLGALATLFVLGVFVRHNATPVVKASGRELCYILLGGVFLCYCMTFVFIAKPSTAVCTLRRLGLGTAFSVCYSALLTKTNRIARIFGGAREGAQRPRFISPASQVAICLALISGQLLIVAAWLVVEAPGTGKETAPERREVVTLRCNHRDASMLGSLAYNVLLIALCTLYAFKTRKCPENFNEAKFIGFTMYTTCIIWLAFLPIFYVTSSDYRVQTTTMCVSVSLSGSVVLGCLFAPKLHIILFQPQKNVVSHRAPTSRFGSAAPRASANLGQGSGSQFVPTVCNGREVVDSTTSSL
Experimental: Binding assay was adapted from Johnson et al.[29]. […] Addition of 5–10 μg membrane protein initiated the incubation. After 45 min at room temperature, the incubation was terminated by rapid filtration followed by scintillation counting. Ki’s were calculated using 4-parameter curve fitting.

rat mGluR3 = biological target: T2, rat mGluR3 (Rattus norvegicus, UniProt P31422); assay: [3H]LY341495 binding to membranes; conditions: Fig. 5C
T2 construct: expressed in transfected cells; host or cells: inducible HEK-293 cell line (membranes)
T2 sequence (P31422 23-879): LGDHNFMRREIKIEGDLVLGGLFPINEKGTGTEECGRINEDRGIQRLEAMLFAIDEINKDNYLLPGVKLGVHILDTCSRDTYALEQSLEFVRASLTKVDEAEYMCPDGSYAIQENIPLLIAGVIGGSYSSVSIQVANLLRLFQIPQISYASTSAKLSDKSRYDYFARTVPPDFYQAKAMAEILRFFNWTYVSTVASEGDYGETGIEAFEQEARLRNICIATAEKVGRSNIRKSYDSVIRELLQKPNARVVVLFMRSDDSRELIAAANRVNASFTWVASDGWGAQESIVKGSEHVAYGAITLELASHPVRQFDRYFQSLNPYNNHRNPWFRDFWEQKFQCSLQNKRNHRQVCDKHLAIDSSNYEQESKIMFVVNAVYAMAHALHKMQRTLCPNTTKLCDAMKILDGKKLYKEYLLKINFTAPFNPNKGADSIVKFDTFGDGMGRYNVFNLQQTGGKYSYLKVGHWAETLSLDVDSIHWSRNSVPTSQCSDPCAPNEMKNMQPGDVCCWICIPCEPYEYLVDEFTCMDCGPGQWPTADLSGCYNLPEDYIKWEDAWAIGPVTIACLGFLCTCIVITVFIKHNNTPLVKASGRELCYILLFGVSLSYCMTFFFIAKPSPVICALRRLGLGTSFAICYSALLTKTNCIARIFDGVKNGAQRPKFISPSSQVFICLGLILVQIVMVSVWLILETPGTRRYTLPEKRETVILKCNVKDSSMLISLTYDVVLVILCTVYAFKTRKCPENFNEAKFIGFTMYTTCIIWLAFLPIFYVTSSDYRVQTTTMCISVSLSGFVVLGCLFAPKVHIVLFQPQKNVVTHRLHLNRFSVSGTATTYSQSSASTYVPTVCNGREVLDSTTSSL
Experimental: Membranes were prepared from an inducible HEK-293 cell line expressing rat mGluR2 or mGluR3. Binding assay was adapted from Johnson et al.[29]. Briefly, [^3H]LY341495 (1.4 nM) was evaluated for binding in the presence or in the absence of orthosteric and allosteric ligands. […] Addition of 5–10 μg membrane protein initiated the incubation. After 45 min at room temperature, the incubation was terminated by rapid filtration followed by scintillation counting. Ki’s were calculated using 4-parameter curve fitting.

Sprague-Dawley rats = assay: Amphetamine-induced disruption of auditory evoked potentials (AEP); format: in vivo; conditions: 3 mg/kg po; amphetamine 3 mg/kg
Excerpt: All recordings were made using Spike2 software (Cambridge Electronic Design, Cambridge, UK) running on a Windows PC connected to a 1401 interface (Cambridge Electronic Design, Cambridge, UK). EEG recordings were created by connecting the skull plug to an amplifying head stage (AI 1401, Axon Instruments, Union City, CA, USA), via a 6-channel commutator and cable (Plastics One, Roanoke, VA, USA). The signal was then further amplified with a multichannel amplifier (Cyberamp 380, Axon Instruments, Union City, CA, USA). Auditory stimuli were controlled by the interface via an eight channel power amplifier (SA8, Tucker Davis Technologies, Alachua, FL) connected to a patch panel (PP16, Tucker Davis Technologies), which was connected to speakers located above each cage (TDT Magnetic Speakers, Tucker Davis Technologies). During recording sessions, animals were placed inside standard mouse cages (30 × 15 × 15 cm) and rigged so that the six channel cables could connect with the rest of the apparatus outside of the cage.
Male Sprague-Dawley rats (150–180 g at arrival) were anesthetized with 3% isoflurane and their scalp was shaved and prepared for surgery. An incision was made in the scalp and the skin was retracted to allow direct contact with the skull surface. The skull was cleaned with a dry Q-tip and five holes were drilled through the skull. Three holes were drilled at coordinates AP + 1 mm, ML + 1 mm (reference); AP−4 mm, ML ± 4 mm (leads 1 and 2) relative to bregma, while an additional hole was drilled in the frontal area (ground) and another hole was drilled at the midpoint between the anterior and posterior coordinate (anchor). […]
AEP data analysis: Data were collected and analyzed using Spike2 software (CED Software, Cambridge, UK). […] Then a horizontal cursor was placed at the highest and lowest (peak and trough) point of the P1/N1 wave, for both the wave occurring to the first tone (S1) and to the second tone (S2), and the value was recorded into an Excel spreadsheet. […]

Q: What does the source list for N[C@](CC1c2ccccc2Oc2ccccc21)(C(=O)O)[C@H]1C[C@@H]1C(=O)O [LY341495, reference compound]?
A: antagonism of the effect of SAR218645 (10 mg/kg) on turning (CD-1 mice [1]): blocked; antagonism of the SAR218645 potentiation (native mouse mGluR2): blocked

Q: Which Tonic seizures (OF1 mice) does the source give for CN1C(=O)CN=C(c2ccccc2)c2cc(Cl)ccc21 [Diazepam, reference compound] here?
A: 0%

Q: Which “effect on DOI-induced head twitches (reference)” value (CD-1 mice [2]) does the source give for COc1cccc([C@H](O)C2CCN(CCc3ccc(F)cc3)CC2)c1OC [volinanserin, reference compound] here?
A: inhibited

Q: For N[C@@]1(C(=O)O)CS(=O)(=O)[C@H]2[C@H](C(=O)O)[C@H]21 [LY404039, (-)-(1R,4S,5S,6S)-4-amino-2-sulfonylbicyclo[3.1.0]hexane-4,6-dicarboxylic acid, reference compound], which Ki (rat mGluR2; Fig. 5A) is on record?
A: 462 nM

Q: What about the Ki (rat mGluR3) of the same compound?
A: 901 nM

Q: Which “effect on amphetamine-disrupted auditory gating (S2/S1 ratio)” value (Sprague-Dawley rats) does the source give for O=C(Oc1ccc(Br)cc1)N1CCN2CCC1CC2 [SSR180711, reference compound] here?
A: attenuated amphetamine-induced disrupted gating

Q: Which “maximal binding, glutamate alone” value (rat mGluR2; absence of SAR218645, Fig. 5B) does the source give for N[C@@H](CCC(=O)O)C(=O)O [Glutamate, L-glutamatic acid, reference compound] here?
A: 108%

Q: What about the Ki (rat mGluR3) of the same compound?
A: 400 nM
